In publication PMC8964423 (Frontiers in Chemistry, 2022):

How the values were obtained:
HeLa = experiment: Cell viability assay (Ez-cytox; Table 1 says MTT), HeLa; assay type: cell-based, human; details: cervical cancer; treated 2 days; mean ± SD (n = 3)
Protocol: (§1) HeLa (ATCC; CCL-2) and CaSki (ATCC; CRL-1550) were cultured in Roswell Park Memorial Institute (RPMI) 1,640 Medium (Gibco; #11875-093) supplemented with heat-inactivated 10% fetal bovine serum (FBS) (Gibco; #16000-044), and 1% penicillin (100 units/mL)/streptomycin (100 μg/mL) solution (Gibco; #15240-062). A375P (ATCC; CRL-3224), HEK293T (ATCC; […] CRL-2541) were cultured in Dulbecco's Modified Eagle's Medium (DMEM) (Gibco; #11995-065) supplemented with heat-inactivated 10% FBS (Gibco; #16000-044), and 1% penicillin/streptomycin solution (Gibco; #15240-062). All types of cells were maintained in 100-mm cell culture dishes in a humidified atmosphere of a 5% CO2 incubator at 37°C. All cells were cultured every 2 days using trypsin (Gibco; #12605-010). […] BF-400-S). […] […]), carboplatin (Sigma; […] After changing the culture medium to 100 μL of fresh culture medium, 10 μL of Ez-cytox solution (Dogen; EZ-BULK150) was added to the 96-well plate. […] Synergy).

Caski = experiment: Cell viability assay, CaSki; assay type: cell-based, human; details: cervical cancer; treated 2 days; mean ± SD (n = 3)
Protocol: as §1

A375P = experiment: Cell viability assay, A375P; assay type: cell-based, human; details: skin melanoma; treated 2 days; mean ± SD (n = 3)
Protocol: as §1

HEK293T = experiment: Cell viability assay, HEK293T; assay type: cell-based, human; details: embryonic kidney cells (non-cancer); treated 2 days; mean ± SD (n = 3)
Protocol: as §1

C8-D1A = experiment: Cell viability assay, C8-D1A; assay type: cell-based, murine; details: normal astrocyte; treated 2 days; mean ± SD (n = 3)
Protocol: as §1

HeLa cells [1] = experiment: ICP-MS metal accumulation in DNA and proteins of HeLa cells; assay type: cell-based, human; details: 10 μM, 1, 2, 4 and 8 h
Protocol: After washing with 1× phospho-buffered saline (PBS, Welgene; ML008-02), HeLa cells harvested by trypsinization (Gibco; #12605-010) were used for either protein or DNA extraction. […] The concentration of the soluble protein fraction was measured by BCA (bicinchoninic acid) protein assay kit (Thermo; #23225). Cell lysates were digested in concentrated HNO3 at 160°C for 3 h and rested at room temperature overnight. The digested cell lysates were diluted in DW to make the final concentration of HNO3 less than 5%. […] The metal accumulations in proteins were expressed as ng Pt or Re/mg protein. In order to quantify metal accumulations in DNA, cells were re-suspended in 300 μL of lysis buffer [100 mM NaCl, 25 mM EDTA (Acros; #11843-5000), 0.5% SDS (w/v) (Acros; #230420100), 0.1 mg/ml proteinase K (Merck; #70663-4CN), and 10 mM Tris-HCl, pH 8.0] and incubated at 50°C overnight. A 300 μL of phenol:chloroform:isoamyl alcohol mixture (25:24:1, Sigma; #77617) was added to cell lysates and shaken vigorously. After centrifugation at 13,000 g for 5 min, upper layer containing DNA, out of two layers, was transferred to a new tube. […] DNA concentration was quantified by measuring the absorbance at 260 nm. […] Metal contents in DNA were quantified by ICP-MS as same method as measuring metal contents in protein. The metal accumulations in DNA were expressed as ng Pt or Re/mg DNA.

HeLa cells [2] = experiment: Flow cytometry apoptosis analysis (Annexin V-FITC) in HeLa cells; assay type: cell-based, human; details: 10 μM TRIP or 50 μM etoposide, 24 h
Protocol: HeLa cells were treated with each compound for the designated time and dose, or transfected with siRNAs using Lipofectamine RNAiMAX (Thermo; #15338100). The cells were trypsinized and re-suspended in PBS containing 2% FBS (Gibco; #16000-044). To measure mitochondrial reactive oxygen species (ROS) and polarization, we stained the same number of re-suspended cells with either 2.5 μM of mitoSOX (Invitrogen; M36008) or 500 nM of TMRE (tetramethylrhodamine ethyl ester) (Invitrogen; T669) at 37°C for 1 h. To measure apoptosis, we also stained the same number of re-suspended cells with Annexin V-FITC Apoptosis Staining and Detection Kit (Abcam; ab14085) according to the manufacturer’s protocol. The stained cells were subjected to flow cytometry analysis using FACSAria II (BD).

CHOP = experiment: Immunoblotting of CHOP signaling pathways in HeLa cells; assay type: cell-based, human
Protocol: The concentration of the soluble protein fraction was measured by BCA protein assay kit (Thermo; #23225).

HeLa cells [3] = experiment: Mitochondrial monitoring in live HeLa cells (mitochondrial fission); details: 10 μM TRIP, 50 μM Mdivi-1 pre-treated 1 h

| Compound | IC50 (HeLa) | IC50 (Caski) | IC50 (A375P) | IC50 (HEK293T) | IC50 (C8-D1A) | other results |
| --- | --- | --- | --- | --- | --- | --- |
| N.N.O=C([O-])C1(C(=O)[O-])CCC1.[Pt+2] [Carboplatin, carboplatin] | 40.5 ± 2.62 µM | 22.73 ± 0.2 µM | 23 ± 0.85 µM | 49.6 ± 6.99 µM | 23.66 ± 0.21 µM |  |
| N.N.[Cl][Pt][Cl] [Cisplatin, cisplatin] | 9.2 ± 0.38 µM | 7.89 ± 0.26 µM | 8.35 ± 0.37 µM | 8.33 ± 0.3 µM | 10.2 ± 0.23 µM | metal accumulation in DNA and proteins (Pt for cisplatin, Re for TRIP) (HeLa cells [1]): induced the DNA platination in a time-dependent manner |
| COc1cc([C@@H]2c3cc4c(cc3[C@@H](O[C@@H]3O[C@@H]5CO[C@@H](C)O[C@H]5[C@H](O)[C@H]3O)[C@H]3COC(=O)[C@H]23)OCO4)cc(OC)c1O [Etoposide, etoposide] |  |  |  |  |  | mode of cell death (HeLa cells [2]): via apoptosis, not necrosis |
| COc1cc(-n2c(=S)[nH]c3ccccc3c2=O)c(Cl)cc1Cl [Mdivi-1] |  |  |  |  |  | effect on TRIP-induced CHOP activation (CHOP; 50 μM Mdivi-1 co-treatment with TRIP): accelerated TRIP-induced CHOP activation; effect on thapsigargin-induced CHOP activation (CHOP; Mdivi-1 co-treatment with thapsigargin): did not boost thapsigargin-induced CHOP activation; mitochondrial fission (HeLa cells [3]): could be blocked by Mdivi-1 treatment |
| C/C=C(/C)C(=O)O[C@H]1C(C)=C2[C@H]([C@@H]1OC(=O)CCCCCCC)[C@@](C)(OC(C)=O)C[C@H](OC(=O)CCC)[C@@]1(O)[C@H]2OC(=O)[C@@]1(C)O [thapsigargin] |  |  |  |  |  | time to activation of p-eIF2α/ATF4 signaling pathway (CHOP; 200 nM thapsigargin): ≤ 1 h; time after which CHOP activation was observed (CHOP; 200 nM thapsigargin or 10 μM TRIP): 2 h |
